Experimental findings from patent publication US4029547A (priority 1974, dated 1977) are described below.

The structures appear in SMILES notation. Several values for one entry are separate records, joined by “and”; a condition that tells them apart may be missing. Equal values may be shown once. Entries after “also recorded” stand apart in the source; their conditions may differ. Read-outs that look alike come from different tables or passages of the source.

In one series the target is T1, aminopeptidase B (Rattus norvegicus, UniProt O09175).
T1 construct: aminopeptidase B of rat liver; from tissue; host or cells: rat liver, enzyme prepared by Sephadex 100 chromatography
T1 sequence (O09175 1-650): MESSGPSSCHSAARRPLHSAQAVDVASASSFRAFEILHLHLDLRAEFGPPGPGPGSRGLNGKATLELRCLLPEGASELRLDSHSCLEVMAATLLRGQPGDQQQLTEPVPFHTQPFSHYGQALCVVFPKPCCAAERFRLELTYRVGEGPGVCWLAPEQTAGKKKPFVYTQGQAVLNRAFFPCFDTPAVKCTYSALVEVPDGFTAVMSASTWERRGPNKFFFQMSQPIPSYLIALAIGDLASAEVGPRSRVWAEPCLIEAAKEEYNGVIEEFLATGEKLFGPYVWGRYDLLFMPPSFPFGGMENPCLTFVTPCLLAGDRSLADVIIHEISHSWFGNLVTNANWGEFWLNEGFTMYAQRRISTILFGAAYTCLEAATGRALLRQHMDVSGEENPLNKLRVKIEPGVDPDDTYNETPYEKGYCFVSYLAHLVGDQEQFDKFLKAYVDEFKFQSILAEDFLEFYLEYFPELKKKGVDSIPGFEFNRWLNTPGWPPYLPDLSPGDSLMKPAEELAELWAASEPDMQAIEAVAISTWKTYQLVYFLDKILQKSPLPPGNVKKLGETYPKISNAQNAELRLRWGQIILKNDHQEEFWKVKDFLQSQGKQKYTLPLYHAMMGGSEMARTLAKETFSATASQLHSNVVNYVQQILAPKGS
Briefly: Inhibition of aminopeptidase B (arginine β-naphthylamide hydrolysis). The following applies: for 50% inhibition dose (ID50) of aminopeptidase B: amount added to the test solution. Type of series: biochemical. On the procedure:
To the mixture of 0.3 ml of 1 mM arginine β-naphthylamide and 1.0 ml of 0.1 M Tris hydrochloride buffer (pH 7.0), 0.7 ml of distilled water with or without a test material is added and warmed at 37° C.) for 3 minutes. The reaction is started by addition of 0.2 ml of aminopeptidase B solution which is prepared by Sephadex 100 chromatography as described by Hopusu et al. After 30 minutes at 37° C., 0.6 ml of 1.0 M acetate buffer (pH 4.2) containing diazonium salt of o-aminoazotoluene at 1.0 mg/ml and Tween 20 at 10% is added. […] The inhibition percent is calculated as follows: (b-a)/b × 100.

Another series has as its target T2, leucine aminopeptidase (Sus scrofa, UniProt P28839).
T2 construct: leucine aminopeptidase of swine kidney; from tissue; host or cells: swine kidney
T2 sequence (P28839 33-519 limits assumed): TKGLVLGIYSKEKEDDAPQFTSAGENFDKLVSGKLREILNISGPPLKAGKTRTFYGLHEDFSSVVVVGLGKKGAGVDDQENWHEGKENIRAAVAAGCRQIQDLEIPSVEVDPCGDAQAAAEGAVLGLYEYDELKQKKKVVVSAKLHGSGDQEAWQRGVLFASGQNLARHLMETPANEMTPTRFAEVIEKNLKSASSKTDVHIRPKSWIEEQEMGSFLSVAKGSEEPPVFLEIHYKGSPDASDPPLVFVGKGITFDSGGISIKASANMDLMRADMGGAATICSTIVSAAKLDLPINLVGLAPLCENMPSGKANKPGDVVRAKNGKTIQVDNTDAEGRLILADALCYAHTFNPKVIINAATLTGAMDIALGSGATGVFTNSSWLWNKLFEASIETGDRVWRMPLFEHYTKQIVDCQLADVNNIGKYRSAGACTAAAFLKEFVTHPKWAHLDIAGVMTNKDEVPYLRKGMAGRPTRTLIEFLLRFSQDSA
As to the kind of experiment: Inhibition of leucine aminopeptidase (L-leucine naphthylamide hydrolysis). It is filed as biochemical, swine. The settings on record: substrate L-leucine-β-naphthylamide. On the procedure:
The activity was determined by the following method: to 0.25 ml. of 2 mM L-leucine-3-naphthylamide (Tokyo Chem. Indust. Co., Ltd., Japan) was added 0.5 ml. of 0.1 M Tris-HCl buffer at pH 7.0 and 0.2 ml. of distilled water with or without an inhibitor in a series of test tubes in a 37° C. bath. After 3 minutes, 0.05 ml. of enzyme solution was added and mixed well.

Series [1] concerns mammalian cells including cancer cells. As to the kind of experiment: Inhibition of growth of mammalian cells. It is filed as cell-based.
The subject of the next series is trypsin. Briefly: Inhibition of trypsin. It is filed as biochemical.
The subject of another series is bacteria. As to the kind of experiment: Antibacterial activity. Type of series: cell-based.
The next series deals with fungi. Briefly: Antifungal activity. Type of series: cell-based. The settings on record: at 100 μg/ml.
Series [2] deals with aminopeptidase A of human serum. Briefly: Inhibition of aminopeptidase A. It is filed as biochemical.
The target in another series is T3, thermolysin (Bacillus thermoproteolyticus, UniProt P00800).
T3 sequence (P00800 233-548): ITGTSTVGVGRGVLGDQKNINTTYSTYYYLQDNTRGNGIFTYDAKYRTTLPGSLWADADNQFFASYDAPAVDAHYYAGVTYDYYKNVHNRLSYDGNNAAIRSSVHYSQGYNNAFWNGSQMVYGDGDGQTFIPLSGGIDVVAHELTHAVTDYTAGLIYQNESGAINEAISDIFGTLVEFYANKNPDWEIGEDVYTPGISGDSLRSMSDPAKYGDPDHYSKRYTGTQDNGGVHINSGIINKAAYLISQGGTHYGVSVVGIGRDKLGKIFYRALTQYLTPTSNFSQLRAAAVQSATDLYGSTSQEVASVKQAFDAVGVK
As to the kind of experiment: Inhibition of thermolysin. It is filed as biochemical.

For a further series, the system named is chymotrypsin. As to the kind of experiment: Inhibition of chymotrypsin. Type of series: biochemical.
A further series can be described thus: Stability to pH and heat. It is filed as physicochemical. The following applies: culture filtrate containing bestatin, pH 2.0 or pH 9.0, 60° C., 30 minutes.
The test system of series [3] is Yoshida rat sarcoma cells. Briefly: Increase of bleomycin activity in tissue culture. Type of series: cell-based. The settings on record: bestatin 6.25 μg/ml in tissue culture medium.
For another series, the system named is elastase. As to the kind of experiment: Inhibition of elastase. Type of series: biochemical.
The next series concerns the target T4, papain (Carica papaya, UniProt P00784).
T4 sequence (P00784 134-345): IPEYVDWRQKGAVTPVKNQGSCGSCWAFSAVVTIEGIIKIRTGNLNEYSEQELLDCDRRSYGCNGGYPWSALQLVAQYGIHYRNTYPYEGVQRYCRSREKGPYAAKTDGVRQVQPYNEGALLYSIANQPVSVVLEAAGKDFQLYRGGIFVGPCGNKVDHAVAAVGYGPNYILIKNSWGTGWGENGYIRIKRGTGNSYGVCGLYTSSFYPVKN
Briefly: Inhibition of papain. It is filed as biochemical.

Series [4] deals with methylcholanthrene-induced squamous cell carcinoma. As to the kind of experiment: Increase of bleomycin effect on carcinoma in vivo. Details: species or system rat. The following applies: simultaneous subcutaneous daily injection, 5 mg/kg bestatin with 5 mg/kg bleomycin, rats.
The subject of the next series is bleomycin hydrolase. As to the kind of experiment: Inhibition of bleomycin hydrolase. It is filed as biochemical.
A short description of series [5]: Toxicity after intraperitoneal injection. It is filed as in vivo, mouse.
Another series can be described thus: Solubility in solvents. Type of series: physicochemical.
Another series deals with pepsin. Briefly: Inhibition of pepsin. Type of series: biochemical.

Turning to `COC(=O)[C@H](CC(C)C)NC(=O)[C@@H](O)[C@@H](Cc1ccccc1)NC(C)=O` [N-acetyl-bestatin methyl ester], on aminopeptidase B, the “50% inhibition dose (ID50) of aminopeptidase B” value (shortened to “50% inhibition dose (ID50)”) was found to be 8 µg.
As for `CC(C)C[C@H](NC(=O)[C@@H](O)[C@H](N)Cc1ccccc1)C(=O)O` [bestatin, [(2S,3R)-3-amino-2-hydroxy-4-phenylbutanoyl]-L-leucine], the mode of inhibition result on leucine aminopeptidase and on aminopeptidase B (substrate L-arginine-β-naphthylamide) was “competitive with the substrate” in each case. The “inhibition of growth of mammalian cells” value in series [1] is “weak inhibition”. In addition, the inhibition of trypsin entry with trypsin is recorded as “did not show any inhibition”. Besides, the antibacterial activity entry is on record as “no antibacterial” in the series with bacteria (at 100 μg/ml) and “substantially no antibacterial activity” in the series on bacteria (no concentration given). Moreover, the antifungal activity entry in the series with fungi is recorded as “no antifungal”. Also, the “inhibition of aminopeptidase A” value in series [2] is reported as “did not show any inhibition”; in series [2] (at 100 μg/ml, aminopeptidase A of human serum) it was 26.4%. Moreover, at thermolysin, the inhibition of thermolysin entry is reported as “did not show any inhibition”. For the same molecule, the inhibition of chymotrypsin result in the series with chymotrypsin is reported as “did not show any inhibition”. The “stability (activity after treatment)” value in the series “Stability to pH and heat” is listed as “No decrease of the activity”. Besides, the “increase of bleomycin activity in inhibiting Yoshida rat sarcoma cells” value in series [3] is recorded as 4- 8 times. Further, in the series with elastase, the inhibition of elastase entry was “did not show any inhibition”. At aminopeptidase B (aminopeptidase B of rat liver), this molecule gave an IC50 of 178 nM. Moreover, on aminopeptidase B, the “50% inhibition dose (ID50)” value is 0.1 µg and 0.10 µg. For the same molecule, at papain, the inhibition of papain result is recorded as “did not show any inhibition”. Moreover, the “increase of bleomycin effect on squamous cell carcinoma” value in series [4] worked out at 4 times. Further, the “inhibition of bleomycin hydrolase” value in the series on bleomycin hydrolase is listed as “strong inhibition”. Also, the toxicity entry in series [5] (intraperitoneal injection of 295 mg/kg, mouse) is “no toxicity”. Further, the death result in series [5] (intraperitoneal injection of 300 mg/kg, mice) was “no death”. The solubility result in the series “Solubility in solvents” (ethyl acetate, butyl acetate, ethyl ether, hexane, petroleum ether, benzene, chloroform) is recorded as “practically insoluble; also recorded: hardly soluble”; in the series “Solubility in solvents” (propanol and butanol) it was “slightly soluble; also recorded: less soluble”; in “Solubility in solvents” (water, acetic acid, pyridine, dimethylsulfoxide, methanol, ethanol), “soluble”. In addition, the inhibition of pepsin result in the series on pepsin was “did not show any inhibition”.
In the case of `COC(=O)[C@H](CC(C)C)NC(=O)[C@@H](O)[C@H](N)Cc1ccccc1` [methyl ester of bestatin], the “50% inhibition dose (ID50)” value on aminopeptidase B is 8.4 µg.

By IC50 is commonly meant the concentration needed to halve the response being measured. A high value points to lower potency.
